Results reported in patent publication US20090176817A1, “Method of Treatment of Diarrhea-Predominant Irritable Bowel Syndrome in a Subject” (priority 2005, published 2009).
Marks after values point to notes of the source that are not given here.

Assays:
[1] = test system: diarrhea-predominant IBS subjects; assay: Study S241.3.011: IBS-QOL; type: in vivo, human; conditions: for Mean change in IBS-QoL subscale Body Image / Mean change in IBS-QoL subscale Dysphoria / Mean change in IBS-QoL subscale Food Avoidance / Mean change in IBS-QoL subscale Health Worry / Mean change in IBS-QoL subscale Interference with Activity / Mean change in IBS-QoL subscale Relationship / Mean change in IBS-QoL subscale Sexual / Mean change in IBS-QoL subscale Social Reaction / Mean change in IBS-QoL, Overall: RR (four-week rerandomization) period
Description: Studies S24 1.3.OO6, S24 1.3.0 1 1, and S24 1.3.009 used the following efficacy measurements: • The subjects answered the following three questions with “yes” or “no” using a phone diary at the end of each week: • a) During the last week, did you experience adequate relief of your IBS symptoms, such as abdominal pain, abdominal discomfort, abnormal bowel habits? • b) During the last week, did you experience adequate relief of your abdominal pain and/or discomfort? • c) During the last week, did you experience adequate relief of your abnormal bowel habits? • The subjects rated the following symptoms using the phone diary at the end of each day: • abdominal pain/discomfort (five-point scale); • stool consistency (seven-point Bristol Stool Scale); • stool frequency (number of bowel movements each day); • urgency (five-point scale); • straining (yes or no); • feeling of incomplete defecation (yes or no); • bloating or feeling of abdominal distension (five-point scale). • In Studies S241 A006 and S241.3.009, subjects completed the IBS-QOL Survey at Baseline (Day 1) and at the end of treatment. In Study S24 1.3.0 1 1, subjects completed the IBS-QOL Survey at Baseline (Day 1), at the end of the three-month treatment period, and at the end of rerandomized treatment.
Other secondary efficacy parameters for all three studies included: • Responder rate for the weekly diary questions on adequate relief at each month, where a responder for a month (monthly responder) was defined as a subject who answered the weekly question with “yes” at least twice for that month. The responder rate was the percentage of responders within a treatment group. The all-month responder rate for the weekly diary questions on adequate relief was also evaluated, where an all-month responder was defined as a subject who answered the weekly question with “yes” at least twice for each month. The all-month responder rate was the percentage of all-month responders within a treatment group; • Adequate relief rate for the weekly diary questions was calculated for each subject as the number of weekly assessments with adequate relief (“yes”) divided by the total number of weekly assessments; • Percentage of subjects with adequate relief for the weekly diary questions at each week; • Daily diary questions regarding abdominal pain/discomfort (five-point scale), stool consistency (seven-point scale), stool frequency (number of bowel movements each day), straining (yes or no), urgency (five-point scale), feeling of incomplete evacuation (yes or no), and bloating or feeling of abdominal distention (five-point scale); • QOL data assessed by the IBS-QOL questionnaire; and • Question to determine the interruption of activities.

healthy subjects [2] = conditions: in vivo
Description: In a randomized, double-blind, placebo-controlled, 2-way crossover study in 9 male and 9 female healthy subjects (ITT population, aged 21-39 years), subjects were randomized to receive 2 treatments (cilansetron 16 mg tablet and placebo) during the 2 treatment periods. During each treatment period, subjects received a single dose of their assigned treatment on the first day (Day 1), after which they received the same treatment TID for 4 days (Days 2-5). There was a 10-day washout period between treatment periods. Subjects were fasted for at least 2 hours before and following each dose, and heavy physical activity was restricted. Serial 12-lead ECGs was recorded up to 24 hours following dosing on Day 1 (single dose) and on the last day (Day 5) of each treatment period. Heart rate and ECG intervals (RR, PR, QRS, and QT) were measured electronically, but were manually verified and corrected if needed by the investigator. QT intervals were corrected (QTc) electronically for heart rate using the Bazett's correction. Mean and maximum QTc intervals were calculated over different time intervals postdose and were compared between treatments using an ANOVA accounting for sequence, gender, subject within sequence and gender, period, and treatment effects.

[3] = test system: CYP2A6, CYP2B6, CYP2C9, CYP2D6, and CYP2E1
Description: The CYP mRNA induction potentials of cilansetron and its two main metabolites, (4S)-hydroxy and (4R)-hydroxy cilansetron, were determined in human hepatocytes and compared to three model inducers, 3-methylcholantrene, phenobarbital, and rifampin.

healthy subjects [4] = assay: Study K.241.5012: colonic transit time, healthy young subjects; type: in vivo, human; conditions: mean (SD); for Transit Times, Colon Total: null hypothesis not rejected vs placebo
Description: The effect of cilansetron on gastric emptying time and colonic transit time has been studied in 1 clinical study in healthy young subjects and 2 studies in elderly subjects. For measurement of gastric emptying time, breath samples for the determination of the ^12C/^13C ratio were taken on the last day of each treatment period immediately after ingestion of a ^13C labeled meal. The patients' breath was collected in separate 15-minute intervals, for four hours in total. ^13CO2 measurements were performed with an isotope ratio mass spectrometer. The half-life (TK) and lag-time (Tlag), which describe the duration of gastric emptying, were used as the primary parameters to evaluate gastric emptying time. In all 3 studies, colonic transit time was measured by administration of radio-opaque markers for the last six days of each treatment period, followed by a single abdominal X-ray image at 24 hours after ingestion of the last set of markers. The numbers of markers within the colon were used to calculate segmental (right colon, left colon, and rectosigmoid) and total colonic transit time.
Study K.241.5013 was a randomized, double-blind, placebo-controlled, 3-way crossover study in 12 healthy male subjects (ITT population), aged 20-27 years. Subjects received cilansetron 4 mg, cilansetron 8 mg, or placebo orally TID for 14 days during each of the treatment periods, with a 14-day washout between periods. The primary efficacy parameter was the total mean colonic transit time during each treatment and the secondary parameters were the segmental colonic transit times and the gastric emptying measurements. A one-sided Dunnett t-test procedure was used to compare efficacy parameters between the cilansetron and placebo treatments.

Cc1nccn1C[C@H]1CCc2c(c3cccc4c3n2CCC4)C1=O [Cilansetron, (R)-(−)-4,5,6,8,9,10-hexahydro-10-[(2-methyl-1H-imidazol-1-yl)methyl]-11H-pyrido-[3,2,1-jk]-carbazol-11-one]
Overall IBS-QOL score, mean change from rerandomization Baseline ([1]; C/C): 0.9
Overall IBS-QOL score, mean change from rerandomization Baseline ([1]; C/P): −4.9
Overall IBS-QOL score, mean change from rerandomization Baseline ([1]; P/C): 5.1
Mean change in IBS-QoL subscale Body Image ([1]; C/C group): −0.8
Mean change in IBS-QoL subscale Dysphoria ([1]; C/C group): +2.2
Mean change in IBS-QoL subscale Food Avoidance ([1]; C/C group): +0.6
Mean change in IBS-QoL subscale Health Worry ([1]; C/C group): +0.2
Mean change in IBS-QoL subscale Interference with Activity ([1]; C/C group): +1.4
Mean change in IBS-QoL subscale Relationship ([1]; C/C group): +1.7
Mean change in IBS-QoL subscale Sexual ([1]; C/C group): −1.4
Mean change in IBS-QoL subscale Social Reaction ([1]; C/C group): +0.3
Mean change in IBS-QoL, Overall ([1]; C/C group): +0.9
Mean change in IBS-QoL subscale Body Image ([1]; C/P group): −3.0
Mean change in IBS-QoL subscale Dysphoria ([1]; C/P group): −6.0
Mean change in IBS-QoL subscale Food Avoidance ([1]; C/P group): −4.7
Mean change in IBS-QoL subscale Health Worry ([1]; C/P group): −1.0
Mean change in IBS-QoL subscale Interference with Activity ([1]; C/P group): −6.4
Mean change in IBS-QoL subscale Relationship ([1]; C/P group): −3.0
Mean change in IBS-QoL subscale Sexual ([1]; C/P group): −3.5
Mean change in IBS-QoL subscale Social Reaction ([1]; C/P group): −5.9
Mean change in IBS-QoL, Overall ([1]; C/P group): −4.9
Mean change in IBS-QoL subscale Body Image ([1]; P/C group): +5.0
Mean change in IBS-QoL subscale Dysphoria ([1]; P/C group): +1.4
Mean change in IBS-QoL subscale Food Avoidance ([1]; P/C group): +7.9
Mean change in IBS-QoL subscale Health Worry ([1]; P/C group): +2.1
Mean change in IBS-QoL subscale Interference with Activity ([1]; P/C group): +7.9
Mean change in IBS-QoL subscale Relationship ([1]; P/C group): +1.4
Mean change in IBS-QoL subscale Sexual ([1]; P/C group): +1.4
Mean change in IBS-QoL subscale Social Reaction ([1]; P/C group): +3.8
Mean change in IBS-QoL, Overall ([1]; P/C group): +5.1
IBS-QOL body image, treatment difference ([1]; vs placebo): 6.60
IBS-QOL dysphoria, treatment difference ([1]; vs placebo): 8.16
IBS-QOL food avoidance, treatment difference ([1]; vs placebo): 9.64
IBS-QOL health worry, treatment difference ([1]; vs placebo): 4.05
IBS-QOL interference with activity, treatment difference ([1]; vs placebo): 10.57
IBS-QOL overall score, treatment difference in mean change from Baseline at Endpoint ([1]; vs placebo): 7.53
IBS-QOL relationships, treatment difference ([1]; vs placebo): 4.72
IBS-QOL sexual, treatment difference ([1]; vs placebo): 5.93
IBS-QOL social reaction, treatment difference ([1]; vs placebo): 5.53
Effect on mean or maximum QTc interval (Bazett's correction) (healthy subjects [2]): no effect
Inductive effect on other CYP isozymes [3]: did not show an inductive effect
Transit Times, Colonic Segments Left (healthy subjects [4]; 4 mg TID oral 14 days): 24.2 (12.9) hours
Transit Times, Colonic Segments Rectosigmold (healthy subjects [4]; 4 mg TID oral 14 days): 15.8 (13.5) hours
Transit Times, Colonic Segments Right (healthy subjects [4]; 4 mg TID oral 14 days): 9.4 (9.5) hours
Transit Times, Colon Total (healthy subjects [4]; 4 mg TID oral 14 days): 49.4 (24.6)^a hours
Transit Times, Colonic Segments Left (healthy subjects [4]; 8 mg TID oral 14 days): 25.8 (16.7) hours
Transit Times, Colonic Segments Rectosigmold (healthy subjects [4]; 8 mg TID oral 14 days): 16.2 (11.9) hours
Transit Times, Colonic Segments Right (healthy subjects [4]; 8 mg TID oral 14 days): 11.8 (13.9) hours
Transit Times, Colon Total (healthy subjects [4]; 8 mg TID oral 14 days): 53.8 (28.5)^a hours
